Structures can show the parent of a compound that is named as a salt.

In this assay the test system is Cellular Release of Amyloid Peptide 1-40. In words: Test 4: Inhibition of Cellular Release of Amyloid Peptide 1-40. It is filed as cell-based, Chinese hamster. As to conditions: Cricetulus griseus, 24 h; read-out: Amyloid-β1-40 release IC50. The method, then: Chinese hamster ovary cells are transfected with the human gene for amyloid precursor protein. The cells are plated at a density of 8000 cells/well into 96-well microtiter plates and cultivated for 24 hours in DMEM cell culture medium containing 10% FCS. The test compound is added to the cells at various concentrations, and the cells are cultivated for 24 hours in the presence of the test compound.
One may read the IC50 as the concentration needed to halve the response being measured. As for `Cc1cc(OC(F)F)cnc1C(=O)Nc1ccc(F)c([C@]2(C)CO[C@@](C)(C(F)(F)F)C(N)=N2)n1` [Example 29, 5-Difluoromethoxy-3-methyl-pyridine-2-carboxylic acid [6-((3R,6R)-5-amino-3,6-dimethyl-6-trifluoromethyl-3,6-dihydro-2H-[1,4]oxazin-3-yl)-5-fluoro-pyridin-2-yl]amide], the IC50 was found to be 24 nM.

On to `Cc1cnc(C(=O)Nc2ccc(F)c([C@]3(C)CO[C@@](C)(C(F)(F)F)C(N)=N3)n2)c(C)n1` [Example 41, 3,5-Dimethyl-pyrazine-2-carboxylic acid [6-((3R,6R)-5-amino-3,6-dimethyl-6-trifluoromethyl-3,6-dihydro-2H-[1,4]oxazin-3-yl)-5-fluoro-pyridin-2-yl]amide], for which the IC50 stood at 161 nM.

`NC1=NC(CF)(c2cc(NC(=O)c3ccc(Br)cn3)cnc2Cl)COC1` (centres unmarked) [Example 18, 5-Bromo-pyridine-2-carboxylic acid [5-(5-amino-3-fluoromethyl-3,6-dihydro-2H-[1,4]oxazin-3-yl)-6-chloro-pyridin-3-yl]-amide hydrochloride]: the IC50 came out at 15 nM.

On to `Cc1cc(C#N)cnc1C(=O)Nc1ccc(F)c([C@]2(C(F)F)COCC(N)=N2)n1` [Example 38, 5-Cyano-3-methyl-pyridine-2-carboxylic acid [6-((R)-5-amino-3-difluoromethyl-3,6-dihydro-2H-[1,4]oxazin-3-yl)-5-fluoro-pyridin-2-yl]-amide], for which the IC50 amounted to 5 nM.

For the molecule `NC1=NC(CF)(c2cccc(NC(=O)c3ccc(Br)cn3)n2)COC1` (centres unmarked) [Example 4, 5-Bromo-pyridine-2-carboxylic acid [6-(5-amino-3-fluoromethyl-3,6-dihydro-2H-[1,4]oxazin-3-yl)-pyridin-2-yl]-amide], the half-inhibitory concentration (IC50) was 98 nM.

On to `Cc1cc(C#N)cnc1C(=O)Nc1cccc(C2(CF)COCC(N)=N2)n1` (centres unmarked) [Example 5, 5-Cyano-3-methyl-pyridine-2-carboxylic acid [6-(5-amino-3-fluoromethyl-3,6-dihydro-2H-[1,4]oxazin-3-yl)-pyridin-2-yl]-amide], for which the IC50 was found to be 40 nM.

Consider `Cc1cnc(C(=O)Nc2ccc(F)c([C@]3(C)CO[C@@](C)(C(F)(F)F)C(N)=N3)n2)cn1` [Example 33, 5-Methyl-pyrazine-2-carboxylic acid [6-((3R,6R)-5-amino-3,6-dimethyl-6-trifluoromethyl-3,6-dihydro-2H-[1,4]oxazin-3-yl)-5-fluoro-pyridin-2-yl]amide], for which the IC50 came to 130 nM.

`C[C@@]1(c2cccc(NC(=O)c3ncc(C#N)cc3Cl)n2)CO[C@@](C)(C(F)(F)F)C(N)=N1` [Example 20, 3-Chloro-5-cyano-pyridine-2-carboxylic acid [6-((3R,6R)-5-amino-3,6-dimethyl-6-trifluoromethyl-3,6-dihydro-2H-[1,4]oxazin-3-yl)-pyridin-2-yl]-amide]: the half-maximal inhibitory concentration (IC50) was found to be 5 nM.

Regarding `Cc1cc(C#N)cnc1C(=O)Nc1ccc(F)c([C@]2(C)CO[C@@](C)(C(F)(F)F)C(N)=N2)n1` [Example 11, 5-Cyano-3-methyl-pyridine-2-carboxylic Acid [6-((3R,6R)-5-amino-3,6-dimethyl-6-trifluoromethyl-3,6-dihydro-2H-[1,4]oxazin-3-yl)-5-fluoro-pyridin-2-yl]-amide], the IC50 was 2 nM.

`Cc1cc(C#N)cnc1C(=O)Nc1ccc(F)c([C@@]2(C(F)F)COCC(N)=N2)n1` [Example 39, 5-Cyano-3-methyl-pyridine-2-carboxylic acid [6-((S)-5-amino-3-difluoromethyl-3,6-dihydro-2H-[1,4]oxazin-3-yl)-5-fluoro-pyridin-2-yl]-amide]: the half-maximal inhibitory concentration (IC50) was 290 nM.

With `Cc1cc(C#N)cnc1C(=O)Nc1cc([C@]2(C)COC(CF)(CF)C(N)=N2)c(F)cn1` [Example 37, 5-Cyano-3-methyl-pyridine-2-carboxylic acid [4-((R)-5-amino-6,6-bis-fluoromethyl-3-methyl-3,6-dihydro-2H-[1,4]oxazin-3-yl)-5-fluoro-pyridin-2-yl]-amide], the IC50 came out at 83 nM.

With `N#Cc1cnc(C(=O)Nc2ccc(F)c([C@]3(C(F)F)COCC(N)=N3)n2)c(Cl)c1` [Example 40, 3-Chloro-5-cyano-pyridine-2-carboxylic acid [6-((R)-5-amino-3-difluoromethyl-3,6-dihydro-2H-[1,4]oxazin-3-yl)-5-fluoro-pyridin-2-yl]-amide], the IC50 came to 12 nM.

For the molecule `C[C@@]1(c2cccc(NC(=O)c3ncc(Br)cc3Cl)n2)CO[C@@](C)(C(F)(F)F)C(N)=N1` [Example 22, 5-Bromo-3-chloro-pyridine-2-carboxylic acid [6-((3R,6R)-5-amino-3,6-dimethyl-6-trifluoromethyl-3,6-dihydro-2H-[1,4]oxazin-3-yl)-pyridin-2-yl]-amide], the IC50 is 29 nM.

Take `COc1cnc(C(=O)Nc2ccc(F)c([C@]3(C)CO[C@@](C)(C(F)(F)F)C(N)=N3)n2)c(C)c1` [Example 25, 5-Methoxy-3-methyl-pyridine-2-carboxylic acid [6-((3R,6R)-5-amino-3,6-dimethyl-6-trifluoromethyl-3,6-dihydro-2H-[1,4]oxazin-3-yl)-5-fluoro-pyridin-2-yl]amide]: the IC50 was determined as 76 nM.

In the case of `C[C@]1(c2cccc(NC(=O)c3ccc(C#N)cn3)n2)CO[C@@](C)(C(F)(F)F)C(N)=N1` [Example 9, 5-Cyano-pyridine-2-carboxylic acid [6-((3S,6R)-5-amino-3,6-dimethyl-6-trifluoromethyl-3,6-dihydro-2H-[1,4]oxazin-3-yl)-pyridin-2-yl]-amide], the half-inhibitory concentration (IC50) turned out to be 1900 nM.

As for `C[C@@]1(c2cc(NC(=O)c3ncc(C#N)cc3Cl)ncc2F)CO[C@@](C)(C(F)(F)F)C(N)=N1` [Example 35, 3-Chloro-5-cyano-pyridine-2-carboxylic acid [4-((3R,6R)-5-amino-3,6-dimethyl-6-trifluoromethyl-3,6-dihydro-2H-[1,4]oxazin-3-yl)-5-fluoro-pyridin-2-yl]-amide], the half-maximal inhibitory concentration (IC50) was found to be 140 nM.

Take `C[C@@]1(c2nc(NC(=O)c3ncc(OCCCF)nc3N)ccc2F)CO[C@@](C)(C(F)(F)F)C(N)=N1` [Example 42, 3-Amino-5-(3-fluoro-propoxy)-pyrazine-2-carboxylic acid [6-((3R,6R)-5-amino-3,6-dimethyl-6-trifluoromethyl-3,6-dihydro-2H-[1,4]oxazin-3-yl)-5-fluoro-pyridin-2-yl]amide]: the IC50 was 72 nM.

As to `COCCn1ccc2nc(C(=O)Nc3ccc(F)c([C@]4(C)CO[C@@](C)(C(F)(F)F)C(N)=N4)n3)c(N)nc21` [Example 43, 3-Amino-5-(2-methoxy-ethyl)-5H-pyrrolo[2,3-b]pyrazine-2-carboxylic acid [6-((3R,6R)-5-amino-3,6-dimethyl-6-trifluoromethyl-3,6-dihydro-2H-[1,4]oxazin-3-yl)-5-fluoro-pyridin-2-yl]amide], the concentration for half-maximal inhibition (IC50) turned out to be 370 nM.

On to `NC1=NC(CF)(c2cccc(NC(=O)c3ccc(Cl)cn3)n2)COC1` (centres unmarked) [Example 3, 5-{6-[(5-Chloro-pyridine-2-carbonyl)-amino]-pyridin-2-yl}-5-fluoromethyl-5,6-dihydro-2H-[1,4]oxazin-3-yl-ammonium Trifluoro Acetate], for which the IC50 came out at 140 nM.

Turning to `Cc1cc(C#N)cnc1C(=O)Nc1cc([C@@]2(C)CO[C@@](C)(C(F)(F)F)C(N)=N2)c(F)cn1` [Example 17, 5-Cyano-3-methyl-pyridine-2-carboxylic acid [4-((3S,6R)-5-amino-3,6-dimethyl-6-trifluoromethyl-3,6-dihydro-2H-[1,4]oxazin-3-yl)-5-fluoro-pyridin-2-yl]-amide], the IC50 is 4800 nM.

As for `[2H]c1nc(C(=O)Nc2cc(C3(CF)COCC(N)=N3)ccn2)c(C([2H])([2H])[2H])c([2H])c1Cl` (centres unmarked) [Example 13, 5-{2-[(5-Chloro-4,6-dideuterio-3-trideuteromethyl-pyridine-2-carbonyl)-amino]-pyridin-4-yl}-5-fluoromethyl-5,6-dihydro-2H-[1,4]oxazin-3-yl-ammonium Acetate], the 50% inhibitory concentration (IC50) was 550 nM.

Take `Cc1cc(C#N)cnc1C(=O)Nc1cccc([C@]2(C)CO[C@@](C)(C(F)(F)F)C(N)=N2)n1` [Example 8, 5-Cyano-3-methyl-pyridine-2-carboxylic Acid [6-((3R,6R)-5-amino-3,6-dimethyl-6-trifluoro-methyl-3,6-dihydro-2H-[1,4]oxazin-3-yl)-pyridin-2-yl]-amide]: the 50% inhibitory concentration (IC50) is 6 nM.

With `C[C@@]1(c2cccc(NC(=O)c3ccc(C#N)cn3)n2)CO[C@@](C)(C(F)(F)F)C(N)=N1` [Example 10, 5-Cyano-pyridine-2-carboxylic acid [6-((3R,6R)-5-amino-3,6-dimethyl-6-trifluoromethyl-3,6-dihydro-2H-[1,4]oxazin-3-yl)-pyridin-2-yl]-amide], the half-inhibitory concentration (IC50) worked out at 17 nM.

As for `C[C@@]1(c2cccc(NC(=O)c3ccc(Br)cn3)n2)COCC(N)=N1` [Example 1, 5-Bromo-pyridine-2-carboxylic acid [6-((R)-5-amino-3-methyl-3,6-dihydro-2H-[1,4]-oxazin-3-yl)-pyridin-2-yl]-amide], the half-inhibitory concentration (IC50) came to 41 nM.

On to `Cc1cc(OCF)cnc1C(=O)Nc1ccc(F)c([C@]2(C)CO[C@@](C)(C(F)(F)F)C(N)=N2)n1` [Example 32, 5-Fluoromethoxy-3-methyl-pyridine-2-carboxylic acid [6-((3R,6R)-5-amino-3,6-dimethyl-6-trifluoromethyl-3,6-dihydro-2H-[1,4]oxazin-3-yl)-5-fluoro-pyridin-2-yl]amide], for which the concentration for half-maximal inhibition (IC50) amounted to 26 nM.

For the molecule `Cc1cc(C#N)cnc1C(=O)Nc1ccc(F)c([C@@]2(C)CO[C@@](C)(C(F)(F)F)C(N)=N2)n1` [Example 12, 5-Cyano-3-methyl-pyridine-2-carboxylic Acid [6-((3S,6R)-5-amino-3,6-dimethyl-6-trifluoromethyl-3,6-dihydro-2H-[1,4]oxazin-3-yl)-5-fluoro-pyridin-2-yl]-amide], the IC50 was found to be 280 nM.
